Test results: US6436997B1, “Endogenous nitric oxide synthesis under conditions of low oxygen tension” (NitroMed, Inc., priority 1998, dated 2002)

Key:
[1] = test system: rabbit corpus cavernosum tissue; assay: Relaxation of phenylephrine-contracted corpus cavernosum tissue strips in organ chambers; assay type: cell-based; details: for effect on N-hydroxy-L-arginine induced relaxation / effect on hydroxylamine induced relaxation: 20% O2; for effect on hydroxylamine induced relaxation: increasing hydroxylamine
Protocol: (§1) Rabbits were euthanized with an overdose of intravenous pentobarbital (60 mg/kg) and immediately exsanguinated. The entire penis was then removed and the corpus cavernosum tissue dissected free from the surrounding tunica albuginea and cut into strgips (3×3×7 mm). Corpus cavernosum tissues were maintained at 4-6° C. in M-400 solution (composition per 100 ml: mannitol, 4.19 g; KH2PO4, 0.205 g; K2HPO4.3H2O, 0.97 g; KCl, 0.112 g; NaHCO3, 0.084 g) until used. Corpus cavernosum tissues were typically used between 2 and 16 hrs from extraction.
Corpus cavernosum tissue was prepared as described in Example 1. For experimentation to measure relaxation of the tissue under various conditions, the corpus cavernosum tissues were then suspended in 10 ml organ chambers and bathed in a physiological salt solution, maintained at 37° C. and aerated with 5% CO2/95% air, pH 7.4. Each corpus cavernosum tissue strip was incrementally stretched to optimal isometric tension as determined by the maximal contractile response to 1 μM phenylephrine. After several exchanges of fresh physiological solution, the media was bubbled with gas mixtures containing 5% CO2, the indicated amount of oxygen (between 0% and 20%) and the remaining percentage was N2, for thirty minutes. Corpus cavernosum tissues were then contracted with a submaximal concentration of phenylephrine, and the contraction was allowed to reach a steady state level. Once a steady state of muscle tension was reached, the tissue was exposed to various concentrations of test compounds, and the relaxation responses were recorded. Relaxation responses were expressed as a percentage of total relaxation induced by a supramaximal addition of papaverine (total loss of tone) at the end of the experiment. The data in FIGS. 3-6 are expressed as mean±standard mean error

rat aortic segments = assay: Relaxation of norepinephrine-contracted rat aortic segments from non-diabetic and diabetic rats; assay type: cell-based; details: for effect on acetylcholine induced relaxation of aorta segments / effect on acetylcholine induced relaxation of aortic rings: 10 μM test drug, 10 nM-10 μM ACh, normoxia; for effect on acetylcholine induced relaxation of aorta segments: diabetic rats, FIG. 10B; for effect on acetylcholine induced relaxation of aortic rings: non-diabetic rats, FIG. 10A
Protocol: Diabetes was induced in rats by the administration of a single injection of steptozotocin (60 mg/kg; i.p). Diabetic rats remained untreated for a total of 8 weeks. […] Rats were anesthetized with diethyl ether and exsanguinated. The thoracic aorta was then removed and the tissue dissected free from the surrounding periadventitial fat and connective tissue, taking precautions to avoid touching the luminal surface. The tissue was cut into 8 segments, each approximately 3-4 mm in length. Rat aortic segments were maintained at 4-6° C. Krebs-bicarbonate buffer (composition per millimolar: NaCl, 120; KCl, 5.6; MgCl2, 1.2; NaH2PO4, 1.2; dextrose, 10; NaHCO3, 25; CaCl2 2.5; pH 7.4) until used. Aortic segments were typically used between 2 and 16 hrs from extraction. […] Each aortic tissue strip was submitted to 1.5 g of resting tension. […] The aortic segments were then contracted with submaximal concentration of norepinephrine and the contraction as allowed to reach a steady state level. Once a steady state of muscle tension was reached, the tissue was exposed to various concentrations of test compounds and the relaxation responses were recorded. Relaxation responses were expressed as a percentage of total relaxation induced by a supramaximal addition of papaverine (total loss of tone) at the end of the experiment. In FIGS. 7-12, the data are expressed as mean±standard mean error.

[2] = test system: left hindlimb of autoperfused non-diabetic or diabetic rats; assay: Vasoactive response (hindlimb perfusion pressure) of anesthetized autoperfused rats; assay type: in vivo, rat; details: bolus infusion 0.1-10 mg/kg, pressure elevated by norepinephrine 2 μg/min/kg, FIGS. 12A/12B
Protocol: The left hindlimb of the anesthetized rats were perfused through the femoral artery at a constant rate of 3.3 ml/min/kg with blood from the carotid artery by means of a peristaltic pump. The vasoactive response induced by the bolus infusion of increasing concentrations of L-arginine or N-hydroxy-L-arginine into the left hindlimb of autoperfused non-diabetic or diabetic rats was determined by measuring the change in the perfusion pressure, which was previously elevated by a norepinephrine constant infusion (2 μg/min/kg).

[3] = test system: rabbit corpus cavernosum tissue; assay: cGMP production (basal and acetylcholine stimulated) by corpus cavernosum tissue strips, ELISA; assay type: cell-based; details: for basal cGMP production: normoxic (20% O2), vs vehicle control, FIG. 1; for cGMP concentration in acetylcholine stimulated tissue compared to basal values (ACh alone): 300 μM test drug + 30 μM ACh, under normoxia (20% O2) and hypoxia (0% O2), FIGS. 2A/2B
Protocol: as §1
Measurement of cyclic GMP in corpus cavernosal tissues was carried out as follows. Corpus cavernosal tissue strips were immersed in a 10 ml organ chamber containing physiological salt solution, maintained at 37° C. and aerated with 5% CO2/95% air, pH 7.4. Each strip was incrementally stretched to optimal isometric tension, as determined by maximal contractile responses to 1 μM phenylephrine ((R)-3-hydroxy-α-[(methylamino)methyl]-benzenemethanol hydrochloride). The physiological salt solution was then replaced with one bubbled with either 20% oxygen or 0% oxygen and the tissues were then given 0.5 μM phenylephrine, 30 μM Zaprinast and 100 μM IBMX (3-isobutyl-1-methylxanthine, […]) and incubated for 15 minutes; after which time each tissue was incubated with the test drug (or control drug) at various concentrations or with vehicle (the buffer in which the drugs are delivered). Tissues were incubated for another 5 minutes then immediately frozen in liquid nitrogen and stored at −80° C. until extraction for cyclic nucleotide assay. Tissues were extracted by homogenization in 6% trichloroacetic acid followed by ether (H2O-saturated) extraction and lyophilization. cGMP levels were determined by ELISA using a kit from Cayman Chemical Co. (Ann Arbor, Mich.).
Protein concentration in the corpus cavernosum tissue was determined using the Bio-Rad Protein Assay Kit microtiter plate assay procedure (Bio-Rad, Hercules, Calif.) with bovine serum albumin as the standard.

[4] = estimated; cited from earlier work
[5] = 0.1 mM L-NNA or 0.02 mM ODQ, increasing N-hydroxy-L-arginine, FIG. 4A
[6] = 0.1 mM L-NNA or 0.02 mM ODQ, FIG. 4B

N=C(NCCC[C@H](N)C(=O)O)N[N+](=O)[O-] [L-NNA, N^G-nitro-L-arginine]
effect on N-hydroxy-L-arginine induced relaxation ([1]; 0.1 mM L-NNA added together with 0.1 mM miconazole, FIG. 3): does decrease the effectiveness of N-hydroxy-L-arginine to relax the tissue
effect on N-hydroxy-L-arginine induced relaxation [1, 5]: significantly decreased the measured relaxation
effect on hydroxylamine induced relaxation [1, 6]: had no effect

NO [hydroxylamine]
relaxation of corpus cavernosum tissue by the substance itself ([1]; 20% O2, 1 nM to 1000 μM, FIG. 4B): induces the relaxation of the tissue

NC(=NCCC[C@H](N)C(=O)O)NO [N-hydroxy-L-arginine, N^G-hydroxy-L-arginine]
induced relaxation, diabetic versus non-diabetic aortic segments (rat aortic segments; 1 μM, 95% O2, FIG. 8): more effective in inducing the relaxation of aortic segments obtained from diabetic rats
effect on acetylcholine induced relaxation of aorta segments (rat aortic segments): increased the relaxation
effect on acetylcholine induced relaxation of aortic rings (rat aortic segments): do not effect the relaxation of aortic rings
induced relaxation of aortic segments compared with L-arginine (rat aortic segments; 95% O2, 100 nM-100 μM, non-diabetic and diabetic rats, FIGS. 7A/7B): more effective in inducing relaxation in both non-diabetic and diabetic rats
tissue relaxation at 1 mM ([1]; all oxygen concentrations (0%, 1%, 2%, 5%, 20%), FIG. 6): significant relaxation of the tissue
change in hindlimb perfusion pressure, non-diabetic versus diabetic rats [2]: no difference in the perfusion pressure
basal cGMP production ([3]; 30 μM test drug): stimulated cGMP production approximately equally
cGMP concentration in acetylcholine stimulated tissue compared to basal values (ACh alone) [3]: statistically significant increase in the concentration of cGMP
basal cGMP production ([3]; 300 μM test drug): effective to stimulate a higher concentration of cGMP production

N=C(N)NCCC[C@H](N)C(=O)O [L-arginine]
effect on acetylcholine induced relaxation of aorta segments (rat aortic segments): resulted in a decreased relaxation
effect on acetylcholine induced relaxation of aortic rings (rat aortic segments): do not effect the relaxation of aortic rings
tissue relaxation at 1 mM ([1]; oxygen concentrations of 0%, 1%, 2% and 5% (data not shown)): no measurable effect on tissue relaxation
change in hindlimb perfusion pressure, non-diabetic versus diabetic rats [2]: the pressure change was greater for the non-diabetic rats compared to diabetic rats
cGMP concentration in acetylcholine stimulated tissue compared to basal values (ACh alone) [3]: not effective to statistically increase the concentration of cGMP
basal cGMP production ([3]; 300 μM test drug): stimulated cGMP production approximately equally

O=c1onc2cnc3ccccc3n12 [ODQ, 1H-[1,2,4]oxadiazolo[4,3,a]quinoxalin-1-one]
effect on N-hydroxy-L-arginine induced relaxation [1, 5]: significantly decreased the measured relaxation
effect on hydroxylamine induced relaxation [1, 6]: significantly decreased the relaxation

COC(=O)[C@@H](N)CCCNC(=N)N[N+](=O)[O-] [L-NAME, N^G-nitro-L-arginine methyl ester]
effect on N-hydroxy-L-arginine induced relaxation of aorta segments (rat aortic segments; 10 μM inhibitor, normoxic, non-diabetic and diabetic rats, FIGS. 9A/9B): significantly decreased the measured relaxation

[N]=O [nitric oxide]
half-life in biological tissues [4]: less than one second

Clc1ccc(COC(Cn2ccnc2)c2ccc(Cl)cc2Cl)c(Cl)c1 (stereo not drawn) [miconazole]
effect on N-hydroxy-L-arginine induced relaxation ([1]; 0.1 mM miconazole, increasing N-hydroxy-L-arginine 1-1000 μM, FIG. 3): does not significantly effect the relaxation of the tissues
